Test system: A. baumannii
Assay: MIC by broth microdilution (CLSI), panel of 60 A. baumannii clinical isolates (Example 1)

C[C@H]1COc2c(N3CCN(C)CC3)c(F)cc3c(=O)c(C(=O)O)cn1c23 [LEVO, levofloxacin]
0.25 µg/mL: MIC (Acinetobacter baumannii, strain ARC593, OXA-98) | MIC (Acinetobacter baumannii, strain ARC3494, OXA-65)
8 µg/mL: MIC50 (Acinetobacter baumannii) | MIC (Acinetobacter baumannii, strain ARC3484, TEM-1, OXA-23, OXA-64) | MIC (Acinetobacter baumannii, strain ARC3486, OXA-72, OXA-66, TEM-1) | MIC (Acinetobacter baumannii, strain ARC3487, OXA-20, OXA-58, OXA-66) | MIC (Acinetobacter baumannii, strain ARC3492, OXA-40, OXA-132, TEM-1) | MIC (Acinetobacter baumannii, strain ARC3515, OXA-64, OXA-58) | MIC (Acinetobacter baumannii, strain ARC3658, OXA-66, PER-1, TEM-1, OXA-23) | MIC (Acinetobacter baumannii, strain ARC3659, OXA-23, OXA*) | MIC (Acinetobacter baumannii, strain ARC5073, OXA-23, TEM-1, OXA-64, PER-1) | MIC (Acinetobacter baumannii, strain ARC5076, TEM-1, OXA-23, OXA-66) | MIC (Acinetobacter baumannii, strain ARC5081, OXA-94, OXA-23) | MIC (Acinetobacter baumannii, strain ARC5082, OXA-66, OXA-23) | MIC (Acinetobacter baumannii, strain ARC5088, OXA-20, OXA-58, OXA-66) | MIC (Acinetobacter baumannii, strain ARC5092, OXA-23, OXA-64)
4 µg/mL: MIC (Acinetobacter baumannii, strain ARC2598, OXA*, TEM-1, OXA-113) | MIC (Acinetobacter baumannii, strain ARC2780 (A. baumannii/calcoaceticus complex), OXA*, OXA-2, IMP-1) | MIC (Acinetobacter baumannii, strain ARC2782, OXA-66, OXA-23, TEM-1, PER-1) | MIC (Acinetobacter baumannii, strain ARC3493, OXA-40, OXA-66) | MIC (Acinetobacter baumannii, strain ARC3495, OXA-40, OXA-109) | MIC (Acinetobacter baumannii, strain ARC3882, OXA-23, NDM-1, OXA-10*) | MIC (Acinetobacter baumannii, strain ARC5074, GES*, TEM-1, OXA-51) | MIC (Acinetobacter baumannii, strain ARC5084, IMP-4(B), OXA-58, OXA-65)
32 µg/mL: MIC90 (Acinetobacter baumannii) | MIC (Acinetobacter baumannii, strain ARC2675, SHV-5, OXA-113) | MIC (Acinetobacter baumannii, strain ARC2777, OXA-172, TEM-1) | MIC (Acinetobacter baumannii, strain ARC2778, OXA-40, TEM-1, OXA-65) | MIC (Acinetobacter baumannii, strain ARC2788, OXA-65, TEM-1) | MIC (Acinetobacter baumannii, strain ARC3488, OXA*, OXA-68) | MIC (Acinetobacter baumannii, strain ARC5075, SHV-5, OXA-113) | MIC (Acinetobacter baumannii, strain ARC5085, OXA*, TEM-1)
1 µg/mL: MIC (Acinetobacter baumannii, strain ARC3491 (A. baumannii/calcoaceticus complex), OXA-215)
0.125 µg/mL: MIC (strain ARC2058, OXA-95) | MIC (strain ARC2779 (A. baumannii/calcoaceticus complex), OXA-2, VIM-2)
16 µg/mL: MIC (Acinetobacter baumannii, strain ARC2461, OXA-66, TEM-1) | MIC (Acinetobacter baumannii, strain ARC2462, TEM-1, OXA-66) | MIC (Acinetobacter baumannii, strain ARC2635, OXA-65, OXA-40, TEM-1) | MIC (Acinetobacter baumannii, strain ARC2636, OXA-65, OXA-40, TEM-1) | MIC (Acinetobacter baumannii, strain ARC2674, SHV-5, OXA-113) | MIC (Acinetobacter baumannii, strain ARC2681, OXA-40, TEM-1, OXA-132) | MIC (Acinetobacter baumannii, strain ARC2682, SHV-5, OXA-113) | MIC (Acinetobacter baumannii, strain ARC3485, OXA-82) | MIC (Acinetobacter baumannii, strain ARC3489, OXA*, OXA-68) | MIC (Acinetobacter baumannii, strain ARC3490, TEM-1+, PSE-2, OXA-69) | MIC (Acinetobacter baumannii, strain ARC3513, TEM-1, OXA-23, OXA-65) | MIC (Acinetobacter baumannii, strain ARC3657, OXA-130) | MIC (Acinetobacter baumannii, strain ARC5077, OXA*, OXA-72) | MIC (Acinetobacter baumannii, strain ARC5079, OXA-72, OXA-65) | MIC (Acinetobacter baumannii, strain ARC5080, OXA-71, OXA-40) | MIC (Acinetobacter baumannii, strain ARC5086, OXA*, TEM-1, OXA-72, OXA-66) | MIC (Acinetobacter baumannii, strain ARC5089, PER*, TEM-1, OXA-23, OXA-66)
> 32 µg/mL: MIC (Acinetobacter baumannii, strain ARC5083, OXA-66, OXA-23) | MIC (Acinetobacter baumannii, strain ARC5087, OXA-66, OXA-23) | MIC (Acinetobacter baumannii, strain ARC5091, OXA-82, OXA-23)
